Measurements as given in paper PMC8147177, “Bio-Insecticide of Thymus vulgaris and Ocimum basilicum Extract from Cell Suspensions and Their Inhibitory Effect against Serine, Cysteine, and Metalloproteinases of the Red Palm Weevil (Rhynchophorus ferrugineus)” (Insects, 2021).
Values after ≈ are worked out from the molar mass of the structure shown.

Assays:
Type in all cases: biochemical, Rhynchophorus ferrugineus
[1] = biological target: trypsin-like serine proteinase of R. ferrugineus midgut; test: Trypsin-like serine proteinase specific activity assay (BApNA) in 4th instar midgut homogenate; settings: for IC50 against trypsin-like serine proteinase: in vitro, midgut of 4th instar larvae; for Specific activity, Trypsin: control 4.10 ± 0.11
Description: (§1) Serine proteinase specific activities were assayed, as described by Olga et al. with modifications, using a rapid microplate assay with synthetic substrates in 150 µL reaction mixtures containing a serine protease assay buffer (100 mM Tris-HCl, pH 8.1). Na-benzoyl-L-arginine ρ-nitroanilide (BAρNA) was evaluated for trypsin-like proteinases, N-succinyl-ala-alapro-leucine ρ-nitroanilide (SAAPLρNA) for elastase-like proteinases, and N-succinyl-ala-ala-pro-phenylalanine ρ-nitroanilide (SAAPFρNA) for chymotrypsin-like proteinases.
(§2) The 4th instar midguts were homogenized with the assay buffer. The homogenates of midguts were centrifuged at 8000× g for 30 min using Sigma 3K 30 rotors No. 12158 (Sigma laboratories centrifuge 3K30). Enzyme (10 µL) was added to each plate well (containing 40 µL of buffers) for the assays chymotrypsin-, trypsin-, and elastase-like proteinases. Stock substrates of BAρNA (100 mg/mL in DMSO), SAAPFρNA (100 mg/mL in DMF), and SAAPLρNA (100 mg/mL in DMF) were diluted to 1.0 mg/mL with an assay buffer. The total volume of the substrate was 50 µL. The reaction mixture was immediately incubated at 37 °C for 15 min and then stopped with 50 µL 30% acetic acid. Nitroaniline was measured at 405 nm using an ELISA plate reader. An assay mixture with a denaturation enzyme instead of a live enzyme was used as the blank well. Specific proteinase activities were expressed in OD/min mg protein in triplicate (for three substrates).
(§3) Specific protease inhibitors were added to the reactions of proteolytic activity determination assays, and the inhibitors were: PMSF, a general serine proteinase inhibitor; TLCK, a trypsin-like serine proteinase inhibitor; TPCK, a chymotrypsin-like serine proteinase inhibitor; an iodoacetic acid-like cysteine proteinase inhibitor; an EDTA-like metalloproteinase inhibitor; and leupeptin, a general proteinase inhibitor. The 4th midgut larval homogenates of a lab strain were prepared as described above in the assay for enzyme activity determination. The inhibition assay was carried out on a microplate assay as described above. A series of inhibitor concentrations was prepared in order to establish the maximum inhibition by each inhibitor. The leupeptin (0.01, 0.05, 0.1, and 1.0 mM), PMSF (0.1, 1.0, 10, and 50 mM), TLCK and TPCK (0.01, 0.05, 0.1, 1, 50, and 100 mM), EDTA (0.1, 1, 10, 50, and 100 mM), and iodoacetic acid concentrations (0.01, 0.05, 0.1, and 1 mM) were dissolved in the assay buffers.
(§4) To identify the proteases present in the R. ferrugineus 4th midgut larval instar homogenate preparations, different mechanistic class inhibitors were tested. In all protease types, enzyme samples of 10 µL and inhibitors or extracts from the cell suspension after 40 days or pure compounds (thymol, p-cymene, γ-terpinene, β-caryophyllene, linalool, estragole, β-terpineol, ocimene, 1,8-cineole, germacrene D, and eugenol) (1, 10, 50, 100, 500, 1000, and 5000 mg/L) were pre-incubated for 10 min before adding the substrate. An assay mixture without inhibitors was used as control. Absorbance was measured using an ELISA plate reader at different nm according to the type of enzymes. Percent activity of the control for each inhibitor was calculated to each enzyme.

[2] = biological target: elastase-like proteinase of R. ferrugineus midgut; test: Elastase-like serine proteinase specific activity assay (SAAPLpNA) in 4th instar midgut homogenate; settings: for IC50 against elastase: in vitro, midgut of 4th instar larvae; for Specific activity, Elastase: control 8.23 ± 0.02
Description: as §1, §2, §3, §4

[3] = system: total proteases of R. ferrugineus midgut; test: Total proteolytic enzyme activity (azocasein) in 4th instar larval midgut homogenate; settings: for IC50 against total proteases: in vitro, midgut of 4th instar larvae; for Specific activity, Total Proteases: control 25.83 ± 0.45
Description: Protein determination was carried out according to the Lowry method. Total proteolytic enzyme activity using azocasein was assessed in the 4th midgut instars larvae homogenate of R. ferrugineus according to Olga et al., [42] with modifications. The 4th midgut larvae homogenates of lab strain (10 larvae) were pulled out gently, excised, and washed using a saline solution (0.9% (w/v) NaCl) repeatedly and then homogenized using 500 µL of an assay buffer. The midgut instar was homogenized in 500 µL of a protease assay buffer [50 mM HEPS (N-2-hydroxyelthyl piperazin-N′-2-ehtanesulphonic acid), pH 8.0, 5 mM dithiothreitol (DTT) and 0.1% (v/v) Triton X-100]. The reserve homogenates that were obtained from a previous step were centrifuged at 5000× g for 30 min using a Sigma 3k30 cooling centrifuge. The supernatants were used for estimation of the total proteolytic enzyme activity and protein concentration. Ten microliters of supernatant per assay was incubated in a total volume of 60 µL of assay buffer (pH 8) for 20 min at 37 °C before the addition of 200 µL of azocasien (2%, w/v in an assay buffer).
In all cases, enzyme samples of 10 μL, hydro distillate extract from the cell suspension after 40 days, and pure compounds (thymol, estragole, p-cymene, γ-terpinene, linalool, β-terpineol, ocimene, eugenol, 1,8-cineole, β-Caryophyllene, and germacrene D) (50, 100, 500, 1000, and 5000 mg/L) were pre-incubated together for 10 min. Substrate was then added to start the reaction (20 min for Leupeptin). The reaction lasted for 180 min at 37 °C and was then stopped using 300 µL of cold 10% (v/v) trichloroacetic acid (TCA). The reaction mixture was centrifuged at 5000× g for 20 min using the Sigma 3k30 cooling centrifuge. Ten microliters of NaOH (10 N) was added to the supernatant, and absorbency at 450 nm was measured using an ELISA plate reader. An assay mixture without an enzyme was used as a blank, the specific activity of total proteolytic enzymes was calculated as OD450. mg^−1·protein^−1·h^−1, and a blank sample was determined without an enzyme solution.
as §3, §4

[4] = system: cysteine proteinase of R. ferrugineus midgut; test: Cysteine proteinase specific activity assay (Z-Phe-Arg-MNA) in 4th instar midgut homogenate; settings: for Specific activity, Cysteine Protease: control 0.59 ± 0.05
Description: as §3, §4

[5] = system: chymotrypsin-like serine proteinase of R. ferrugineus midgut; test: Chymotrypsin-like serine proteinase specific activity assay (SAAPFpNA) in 4th instar midgut homogenate; settings: for Specific activity, Chymotrypsin: control 7.35 ± 0.02
Description: as §1, §2, §3, §4

## CC12CCC(CC1)C(C)(C)O2 [1,8-cineole]
[1]
  IC50 against trypsin-like serine proteinase: 71.7 µg/mL (≈ 465 µM)
[2]
  IC50 against elastase: 116 µg/mL (≈ 752 µM)
[3]
  IC50 against total proteases: 92.1 µg/mL (≈ 597 µM)

## O=C(O)CI [Iodoacetic acid, iodoacetic acid]
[4]; cysteine protease inhibitor
  Inhibition of midgut instar proteases (in words): significantly inhibited
[4]; inhibitor 0.01 mM
  Specific activity, Cysteine Protease: 0.28 ± 0.04 OD/mg protein min
[4]; inhibitor 0.05 mM
  Specific activity, Cysteine Protease: 0.24 ± 0.05 OD/mg protein min
[4]; inhibitor 0.1 mM
  Specific activity, Cysteine Protease: 0.19 ± 0.04 OD/mg protein min
[4]; inhibitor 1 mM
  Specific activity, Cysteine Protease: 0.16 ± 0.05 OD/mg protein min

## CC(=O)N[C@@H](CC(C)C)C(=O)N[C@@H](CC(C)C)C(=O)N[C@H](C=O)CCCNC(=N)N [Leupeptin, leupeptin]
[3]; inhibitor 0.01 mM
  Specific activity, Total Proteases: 0.12 ± 0.05 OD/mg protein min
[3]; inhibitor 0.05 mM
  Specific activity, Total Proteases: 0.08 ± 0.05 OD/mg protein min
[3]; inhibitor 0.1 mM
  Specific activity, Total Proteases: 0.07 ± 0.05 OD/mg protein min
[3]; inhibitor 1 mM
  Specific activity, Total Proteases: 0.01 ± 0.05 OD/mg protein min

## O=S(=O)(F)Cc1ccccc1 [PMSF, phenymethanesulfonyl fluoride]
[2]; inhibitor 0.1 mM
  Specific activity, Elastase: 6.46 ± 0.01 OD/mg protein min
[2]; inhibitor 1 mM
  Specific activity, Elastase: 5.26 ± 0.03 OD/mg protein min
[2]; inhibitor 10 mM
  Specific activity, Elastase: 4.18 ± 0.03 OD/mg protein min
[2]; inhibitor 50 mM
  Specific activity, Elastase: 3.98 ± 0.0 OD/mg protein min
[3]; purified proteases from midgut 4th larval instars
  Inhibition of midgut proteases (in words): strongly inhibited

## Cc1ccc(S(=O)(=O)N[C@@H](CCCCN)C(=O)CCl)cc1 [TLCK, N,p-tosyl-L-lysine chloromethyl ketone]
[1]; inhibitor 0.01 mM
  Specific activity, Trypsin: 3.90 ± 0.11 OD/mg protein min
[1]; inhibitor 0.05 mM
  Specific activity, Trypsin: 3.82 ± 0.1 OD/mg protein min
[1]; inhibitor 0.1 mM
  Specific activity, Trypsin: 3.57 ± 0.1 OD/mg protein min
[1]; inhibitor 1 mM
  Specific activity, Trypsin: 3.41 ± 0.09 OD/mg protein min
[1]; inhibitor 10 mM
  Specific activity, Trypsin: 3.08 ± 0.1 OD/mg protein min
[1]; inhibitor 50 mM
  Specific activity, Trypsin: 2.84 ± 0.09 OD/mg protein min
[1]; inhibitor 100 mM
  Specific activity, Trypsin: 2.12 ± 0.1 OD/mg protein min
[1]; trypsin-like serine proteinase inhibitor
  Inhibition of midgut instar proteases (in words): significantly inhibited

## Cc1ccc(S(=O)(=O)N[C@@H](Cc2ccccc2)C(=O)CCl)cc1 [TPCK, N,alpha-tosyl-L-phenylalanine chloromethyl ketone]
[5]; chymotrypsin-like serine proteinase inhibitor
  Inhibition of midgut instar proteases (in words): significantly inhibited
[5]; inhibitor 0.01 mM
  Specific activity, Chymotrypsin: 6.97 ± 0.03 OD/mg protein min
[5]; inhibitor 0.05 mM
  Specific activity, Chymotrypsin: 6.40 ± 0.02 OD/mg protein min
[5]; inhibitor 0.1 mM
  Specific activity, Chymotrypsin: 6.18 ± 0.02 OD/mg protein min
[5]; inhibitor 1 mM
  Specific activity, Chymotrypsin: 5.28 ± 0.02 OD/mg protein min
[5]; inhibitor 10 mM
  Specific activity, Chymotrypsin: 4.87 ± 0.02 OD/mg protein min
[5]; inhibitor 50 mM
  Specific activity, Chymotrypsin: 3.64 ± 0.03 OD/mg protein min
[5]; inhibitor 100 mM
  Specific activity, Chymotrypsin: 2.02 ± 0.02 OD/mg protein min

## C=CCc1ccc(O)c(OC)c1 [eugenol]
[1]
  IC50 against trypsin-like serine proteinase: 74.1 µg/mL (≈ 451 µM)
[3]
  IC50 against total proteases: 99.7 µg/mL (≈ 607 µM)

## C=CC(C)(O)CCC=C(C)C (stereo not shown) [linalool]
[2]
  IC50 against elastase: 109.1 µg/mL (≈ 707 µM)
[3]
  IC50 against total proteases: 197 µg/mL (≈ 1280 µM)

## Cc1ccc(C(C)C)cc1 [p-cymene]
[1]
  IC50 against trypsin-like serine proteinase: 98.4 µg/mL (≈ 733 µM)
[2]
  IC50 against elastase: 169 µg/mL (≈ 1260 µM)
[3]
  IC50 against total proteases: 121.8 µg/mL (≈ 907 µM)

## Cc1ccc(C(C)C)c(O)c1 [thymol]
[2]
  IC50 against elastase: 195 µg/mL (≈ 1300 µM)
[3]
  IC50 against total proteases: 189.7 µg/mL (≈ 1260 µM)

## C=C(C)C1CCC(C)(O)CC1 (stereo not drawn) [β-terpineol]
[3]
  IC50 against total proteases: 214 µg/mL (≈ 1390 µM)

## CC1=CCC(C(C)C)=CC1 [γ-terpinene]
[1]
  IC50 against trypsin-like serine proteinase: 105.7 µg/mL (≈ 776 µM)
[2]
  IC50 against elastase: 163 µg/mL (≈ 1200 µM)
[3]
  IC50 against total proteases: 137.3 µg/mL (≈ 1010 µM)
